Results from patent US6436920B1, “Wrinkling modifiers” (Kao Corporation, priority 1996, dated 2002).

Test system: Wrinkles formed on hairless mice by exposure to UVB
Assay: Effect of the guanidine derivatives on wrinkles formed on hairless mice by exposure to UVB
Assay type: in vivo, Hairless mice (HR/ICR)
Settings: for Area percent by image analysis (%): proportion of shadows of wrinkles on back skin replicas (14 mm, illuminated at 30 degrees), 4% in aqueous ethanol, 100 μl 5 times a week over 6 weeks, control 10.6; for Wrinkle index: visual score 1 (wrinkles completely removed or smoothed) to 4 (observed to a great extent), 4% in aqueous ethanol (50/50 vol. %), 100 μl applied 5 times a week over 6 weeks, groups of 8 mice, control 3.73
Description: Effect of the Guanidine Derivatives (1) to (16) on Wrinkles Formed on Hairless Mice by Exposure to UVB
(1) Hairless mice (HR/ICR, aged 6 weeks at the beginning of the experiment) were,exposed to UVB 3 times a week by using 6 Toshiba healthy lamps, 20SE. The amount of energy was measured by means of a UV-Radiometer, UVR-305/365D manufactured by TOKYO OPTICAL K.K. The dose upon one exposure was determined to be 1 MED or less, i.e., 65 mJ in an amount of energy of 0.28 mW/cm^2. The exposure was effected for 20 weeks. After confirming that the hairless mice had got wrinkles at their backs, they were divided into groups each consisting of 8 mice. Aqueous ethanol (water/ethanol=50/50 vol. %) solutions separately containing Compounds (1) to (16) at a concentration of 4% were applied 5 times a week to their corresponding groups of mice over 6 weeks in a dose of 100 μl. As a control, aqueous ethanol (water/ethanol=50/50 vol. %) was applied in a dose of 100 μl like the samples. After completion of the application, the degree of wrinkles was visually observed to evaluate the samples in accordance with the following standard (wrinkle index).
1: Wrinkles were completely removed or smoothed;
2: Wrinkles were scarcely observed;
3: Wrinkles were somewhat observed;
(2) In order to further analyze the particulars of wrinkles, skin replicas of the size of 14 mm in diameter were gathered from a portion of the back in each of the mice using a Hydrophilic Exaflex hydrophilic vinylsilicone impression material. Each of these replicas was held horizontally and illuminated at an angle of 30 degrees from the horizontal direction, thereby finding a proportion of shadows of the wrinkles as an area percent by means of an image analyzer.

| Structure (SMILES) | Area percent by image analysis (%) | Wrinkle index |
| --- | --- | --- |
| N=C(N)N1CCC(O)C1 (centres unmarked) [Compound (3)] | 4.32 | 2.50 |
| N=C(N)N1CCOCC1 [Compound (10)] | 3.41 | 2.50 |
| N=C(N)N1CCCC1C(=O)O (centres unmarked) [Compound (2)] | 2.48 | 2.125 |
| N=C(N)N1CCC(C(=O)O)CC1 [Compound (6)] | 3.51 | 2.75 |
| N=C(N)N1CCN(C(=N)N)CC1 [Compound (7)] | 4.28 | 2.75 |
| N=C(N)N1CCCC1CO (centres unmarked) [Compound (13)] | 4.30 | 2.375 |
| N=C(N)N1CCCC1 [Compound (14)] | 3.62 | 2.125 |
| N=C(N)N1CC(O)CC1C(=O)O (centres unmarked) [Compound (1)] | 3.21 | 2.0 |
| N=C(N)N1CCCC1CO (centres unmarked) [Compound (4)] | 5.37 | 2.50 |
| N=C(N)N1CCCC1CO (centres unmarked) [Compound (9)] | 4.00 | 2.375 |
| N=C(N)N1CCOCC1 [Compound (5)] | 4.76 | 2.75 |
| N=C(N)N1CCC(O)C1 (centres unmarked) [Compound (8)] | 3.26 | 2.25 |
| N=C(N)N1CCCCC1 [Compound (15)] | 4.48 | 2.50 |
| N=C(N)N1CCN(C(=N)N)CC1 [Compound (11)] | 4.02 | 2.75 |
| N=C(N)N1CCC(O)C1 (centres unmarked) [Compound (12)] | 3.62 | 2.50 |
| N=C(N)N1CCC(CC(=O)O)CC1 [Compound (16)] | 4.25 | 2.25 |
